Reference: patent US20120029187A1, “HALOALKYLSULFONANILIDE DERIVATIVE” (Nissan Chemical Industries, Ltd., priority 2009, published 2012)

Legend:
Type in all cases: in vivo
transplanted rice = test: Test Example 1: preemergence treatment under submerged conditions, effect on crop; details: dose 2.52 g/a
Summary of the method: (§1)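 Weed seeds and 2.5-leaf rice seedlings shared each flooded cup of alluvial soil. Dosing, expressed as g per are, was by pouring water-diluted emulsifiable concentrate onto the surface on sowing day. Mortality was graded 0 to 5 after three weeks' growth.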

bulrush [1] = test: Test Example 2: herbicidal effects during the vegetation period under submerged conditions; details: treatment during the vegetation period under submerged conditions; dose 2.52 g/a
Summary of the method: (§2)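 Barnyardgrass, bulrush and ducksalad were co-sown in alluvial soil flooded to 4 cm and grown in a greenhouse at 25 to 30° C. At the 1- or 2-leaf stage, water-diluted emulsifiable concentrates went onto the water surface at set doses (g/a). Herbicidal effect was scored three weeks later on a graded scale.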

ducksalad [2] = test: as above; details: treatment during the vegetation period under submerged conditions; dose 2.52 g/a
Summary of the method: as §2

barnyardgrass [3] = test: as above; details: treatment during the vegetation period under submerged conditions; dose 2.52 g/a
Summary of the method: as §2

bulrush [4] = test: Test Example 1: herbicidal effects in preemergence treatment under submerged conditions; details: dose 2.52 g/a
Summary of the method: as §1

ducksalad [5] = test: as above; details: dose 2.52 g/a
Summary of the method: as §1

barnyardgrass [6] = test: as above; details: dose 2.52 g/a
Summary of the method: as §1

CC(C)COC(=O)N(c1ccccc1CN1COCCC1=O)S(=O)(=O)C(F)(F)F [II-3]
a: transplanted rice, effect on crop (evaluation scale 0-5) (transplanted rice): 0 (mortality of less than 5% (almost ineffective))
B: bulrush, herbicidal effect (evaluation scale 0-5) (bulrush [1]): 5 (mortality of 90% or above (nearly complete death))
C: ducksalad, herbicidal effect (evaluation scale 0-5) (ducksalad [2]): 4 (mortality of at least 70% and less than 90%)
A: barnyardgrass, herbicidal effect (evaluation scale 0-5) (barnyardgrass [3]): 5 (mortality of 90% or above (nearly complete death))
B: bulrush, herbicidal effect (evaluation scale 0-5) (bulrush [4]): 5 (mortality of 90% or above (nearly complete death))
C: ducksalad, herbicidal effect (evaluation scale 0-5) (ducksalad [5]): 5 (mortality of 90% or above (nearly complete death))
A: barnyardgrass, herbicidal effect (evaluation scale 0-5) (barnyardgrass [6]): 5 (mortality of 90% or above (nearly complete death))
